From paper PMC7822874, “Chemoprotective antimalarials identified through quantitative high-throughput screening of Plasmodium blood and liver stage parasites” (Scientific Reports, 2021)
Read-outs that look alike come from different tables or passages of the source.

Experiments:
[1] = tested on: T1, Plasmodium falciparum Dd2-attB (parental line), asexual blood stages; assay: microbe, parasite or virus in culture; set-up: species or system P. falciparum Dd2-attB in human erythrocytes; SYBR Green-I proliferation assay, Dd2-attB parental line, asexual blood stages; settings: Plasmodium falciparum, DD2, Erythrocyte, 72 h, read-out: Calculated / Average Log AC50 (M), mean of replicates, 72 h (converted)
T1 construct: Dd2-attB, the isogenic parental line

[2] = tested on: P. berghei-ANKA-GFP-LucCON liver stage parasites in HepG2-A16-CD81EGFP cells; assay: P. berghei liver stage Pb-Luc assay, Method 1 (UCSD, 1536-well); type: cell-based, Plasmodium berghei; settings: for Max Resp (signal direction of the dose response): Decrease = decreasing P. berghei viability with dose, Increase = increasing signal, Inactive = no dose response; for activity at 1 µM / activity at 3 µM: 48 h
[3] = tested on: luciferase-expressing P. berghei liver stage parasites in HepG2 cells; assay: Inhibition of liver-stage development assay (ILSDA), Method 2 (WRAIR, 96-well); type: cell-based, Plasmodium berghei; settings: for Activity direction (Decrease / Inactive): P. berghei liver stage, Method 2, dose response; for AC50: Plasmodium berghei, HepG2, Method 2
[4] = tested on: Plasmodium falciparum Dd2 asexual blood stage parasites; assay: microbe, parasite or virus in culture; set-up: species or system Plasmodium falciparum Dd2 in human erythrocytes; single determination (one 11-point concentration-response curve); settings: Plasmodium falciparum, DD2, Erythrocyte, 72 h; read-out: AC50
HepG2-A16-CD81EGFP cells = settings: average of 2 wells; for HepG2 viability signal, 1 uM, repeat 2: nominal 1 uM (10 mM stock), […] for 15 mM, 1.2 uM for 12 mM, 2 uM for 20 mM stock; for HepG2 viability signal, 3 uM, repeat 2: nominal 3 uM (10 mM stock), 4.5 uM for 15 mM, 3.6 uM for 12 mM, 6 uM for 20 mM stock
in vitro [5] = settings: human, HepG2-A16-CD81EGFP cells, uninfected
in vitro [6] = settings: human, HepG2 cells; n = 1
[7] = Plasmodium berghei, nominal 1 uM (10 mM stock), […] for 15 mM, 1.2 uM for 12 mM, 2 uM for 20 mM stock, average of 2 wells, 1536-well plate, repeat 1, read-out: Pb-Luc signal, 1 uM, repeat 1
[8] = Plasmodium berghei, nominal 1 uM (10 mM stock), […] for 15 mM, 1.2 uM for 12 mM, 2 uM for 20 mM stock, average of 2 wells, 1536-well plate, repeat 2, read-out: Pb-Luc signal, 1 uM, repeat 2
[9] = Plasmodium berghei, nominal 1 uM (10 mM stock), […] for 15 mM, 1.2 uM for 12 mM, 2 uM for 20 mM stock, average of 2 wells, 1536-well plate, repeat 3, read-out: Pb-Luc signal, 1 uM, repeat 3
[10] = Plasmodium berghei, nominal 3 uM (10 mM stock), 4.5 uM for 15 mM, 3.6 uM for 12 mM, 6 uM for 20 mM stock, average of 2 wells, 1536-well plate, repeat 1, read-out: Pb-Luc signal, 3 uM, repeat 1
[11] = Plasmodium berghei, nominal 3 uM (10 mM stock), 4.5 uM for 15 mM, 3.6 uM for 12 mM, 6 uM for 20 mM stock, average of 2 wells, 1536-well plate, repeat 2, read-out: Pb-Luc signal, 3 uM, repeat 2
[12] = Plasmodium berghei, nominal 3 uM (10 mM stock), 4.5 uM for 15 mM, 3.6 uM for 12 mM, 6 uM for 20 mM stock, average of 2 wells, 1536-well plate, repeat 3, read-out: Pb-Luc signal, 3 uM, repeat 3
[13] = Plasmodium berghei, Method 1, Hill fit, 50% of maximum activity response, read-out: AC50
[14] = Plasmodium berghei, Method 1, log10 of molar AC50 from Hill fit, read-out: Log AC50 (converted)

O=C(O)c1ccnc2cc(C(OCCN3CCC(F)(F)CC3)c3ccccc3Cl)[nH]c12 (centres unmarked) [NCGC00414992-02]
AC50 [1]: 1.53e-05 M

CC(C)c1ccc(CC(=O)N2CCCc3ncc(C(=O)Nc4cccnc4)cc32)cc1 [NCGC00420003-01]
Max Resp (signal direction of the dose response) ([2]; Method 1): Inactive
activity at 1 µM [2, 7]: 24.7%
activity at 1 µM [2, 8]: 4.89%
activity at 1 µM [2, 9]: 35.4%
activity at 3 µM [2, 10]: 3.66%
activity at 3 µM [2, 11]: 2.01%
activity at 3 µM [2, 12]: 4.19%
Activity direction (Decrease / Inactive) [3]: Inactive
AC50 [4]: 863 nM
HepG2 viability signal, 1 uM, repeat 2 (HepG2-A16-CD81EGFP cells): 94.19%
HepG2 viability signal, 3 uM, repeat 2 (HepG2-A16-CD81EGFP cells): 54.54%
viability at 48 h, 1 µM (in vitro [5]): 99%
viability at 48 h, 3 µM (in vitro [5]): 35.6%
CC50 at 48 h (in vitro [6]): 19.8 µM

COC(=O)c1ccc(N(CCN2CCC(F)(F)CC2)c2ccc(F)cc2)cn1 [NCGC00390009-01]
AC50 [1]: 1.53e-05 M

Cn1cnc(-c2nccc3c(O)nc(OCCCC(F)(F)F)nc23)c1 [NCGC00381768-02]
AC50 [1]: 2.08e-05 M

CN(C)CCCN1CCCN(C(=O)c2cccc(-c3cc(O)c4ncccc4c3)c2)C1 [NCGC00247763-01]
AC50 [1]: 1.93e-05 M

O=C(O)c1ccnc(-n2ncc(C(OCCN3CCCCC3)c3ccccc3Cl)c2-c2ccccc2Cl)c1 (centres unmarked) [NCGC00487469-01]
AC50 [1]: 1.85e-05 M

Cc1nn2c(c1-c1ccccc1-c1ccccc1)N(CC1CC1)CCC2 [NCGC00420435-01]
activity at 1 µM [2, 7]: 52.9%
activity at 1 µM [2, 8]: 51.5%
activity at 1 µM [2, 9]: 66.1%
activity at 3 µM [2, 10]: 2.42%
activity at 3 µM [2, 11]: 7.19%
activity at 3 µM [2, 12]: 5.92%
AC50 [2, 13]: 1580 nM
AC50 [2, 14]: 1580 nM
Activity direction (Decrease / Inactive) [3]: Inactive
AC50 [4]: 968 nM
HepG2 viability signal, 1 uM, repeat 2 (HepG2-A16-CD81EGFP cells): 101.46%
HepG2 viability signal, 3 uM, repeat 2 (HepG2-A16-CD81EGFP cells): 45.92%
viability at 48 h, 1 µM (in vitro [5]): 102%
viability at 48 h, 3 µM (in vitro [5]): 53.6%
CC50 at 48 h (in vitro [6]): 22.2 µM

CCOC(=O)c1ccnc(-n2ncc(C(=O)OCC)c2-c2ccc(OC)cc2)c1 [NCGC00421879-01]
AC50 [1]: 1.22e-05 M

O=C(O)c1ccnc(-n2ncc(C(OCCN3CCCCC3)c3ccccc3)c2-c2ccccc2Cl)c1 (centres unmarked) [NCGC00483104-01]
AC50 [1]: 1.36e-05 M

Oc1ccc(CNc2ccccc2Br)c2cccnc12 [NCGC00184890-01]
AC50 [1]: 1.78e-05 M

CN(C)CCCNC(=O)c1cccc(-c2cc(O)c3nccc(C(=O)O)c3c2)c1 [NCGC00247762-01]
AC50 [1]: 2.25e-05 M

Cc1nn2c(c1-c1ccnn1C(C)C)N(CC1CC1)CCC2 [NCGC00499721-01]
AC50 [1]: 1.59e-05 M

O=C(O)c1ccc(O)c2ncc(-c3cccc(N4CCOCC4)c3)cc12 [NCGC00241753-01]
AC50 [1]: 2.16e-05 M

CN1CCCCC1CCOC(c1cc2nccc(C(=O)O)c2[nH]1)c1ccccc1Cl (centres unmarked) [NCGC00479006-01]
AC50 [1]: 1.93e-05 M

O=C(O)c1ccc(O)c2ncc(N3CCCC3)cc12 [NCGC00189500-01]
AC50 [1]: 1.72e-05 M

Cc1cccc(CN2CCCn3nc(C)c(-c4ccnn4C(C)C)c32)n1 [NCGC00499722-01]
AC50 [1]: 1.65e-07 M

COC(=O)c1ccc(OC(C)=O)c2ncccc12 [NCGC00187997-01]
AC50 [1]: 1.93e-05 M

O=C(O)c1ccc(O)c2ncc(N3CC(N4CCOCC4)C3)cc12 [NCGC00241761-01]
AC50 [1]: 1.72e-05 M

C=CC(=O)N1CCCN(c2cc(NCCC(=O)O)nc(-c3ccccn3)n2)CC1 [NCGC00420854-01]
AC50 [1]: 2.16e-05 M

CCOC(=O)c1cnn(-c2cc(C(N)=O)ccn2)c1-c1ccc(OC)cc1 [NCGC00421836-01]
AC50 [1]: 6.33e-06 M

O=C(O)c1ccc(O)c2ncc(N3CCCCC3)cc12 [NCGC00241752-01]
AC50 [1]: 1.65e-05 M

CCOC(=O)c1ccnc(CNCC(=O)N(CC)CCN(C)C)c1 [NCGC00371443-05]
AC50 [1]: 1.47e-07 M

CN1CCCC1CCOC(c1cc2nccc(C(=O)O)c2[nH]1)c1ccccc1Cl (centres unmarked) [NCGC00421826-01]
AC50 [1]: 6.58e-06 M

CC(C)(C)c1cc(N2CCC(NC(=O)c3ccccc3)C2)n[nH]1 (centres unmarked) [NCGC00488845-01]
AC50 [1]: 2.25e-05 M

O=C(O)c1ccc(O)c2ncc(-c3n[nH]nc3-c3ccccc3)cc12 [NCGC00241764-02]
AC50 [1]: 4.66e-06 M

O=C(O)c1ccnc2cc(C(OCCCC3CCCCN3)c3ccccc3Cl)[nH]c12 (centres unmarked) [NCGC00479271-01]
AC50 [1]: 8.94e-06 M

CCN(Cc1noc(CC(C)C)n1)C(=O)c1cnc(-c2ccccn2)nc1O [NCGC00438951-02]
AC50 [1]: 1.85e-05 M

COC(=O)c1ccnc(-c2cc(C(=O)NCCc3ccccc3)ccn2)c1 [NCGC00351541-01]
AC50 [1]: 2.16e-05 M

Cc1nc2ccc(NC(=O)c3cc(S(=O)(=O)N(C)c4ccccc4)ccc3Cl)cc2s1 [MLS000393823-01]
activity at 1 µM ([2]; Plasmodium berghei, P. berghei liver stage, 1 µM compound treatment (10 mM stocks), replicate 1, normalized, average of 2 wells on a 1536 well plate, read-out: PbLuc 1uM growth rep1): 19%
activity at 1 µM ([2]; Plasmodium berghei, P. berghei liver stage, 1 µM compound treatment (10 mM stocks), replicate 2, normalized, average of 2 wells on a 1536 well plate, read-out: PbLuc 1uM growth rep2): 15%
activity at 3 µM ([2]; Plasmodium berghei, P. berghei liver stage, 3 µM compound treatment (10 mM stocks), replicate 1, normalized, average of 2 wells on a 1536 well plate, read-out: PbLuc 3uM growth rep1): 3.66%
activity at 3 µM ([2]; Plasmodium berghei, P. berghei liver stage, 3 µM compound treatment (10 mM stocks), replicate 2, normalized, average of 2 wells on a 1536 well plate, read-out: PbLuc 3uM growth rep2): 5.53%
Max Resp (signal direction of the dose response) ([3]; Method 2, Decrease = decreasing P. berghei viability with dose, Increase = increasing signal, Inactive = no dose response): Decrease
AC50 ([3]; Hill fit, 50% of maximum activity response, read-out: AC50): 501 nM
AC50 ([3]; log10 of molar AC50 from Hill fit, read-out: Log AC50 (converted)): 501 nM
AC50 [4]: 841 nM
HepG2 1uM growth rep1 (HepG2-A16-CD81EGFP cells; HepG2, 1 µM compound treatment (10 mM stocks), replicate 1, normalized): 61%
HepG2 1uM growth rep2 (HepG2-A16-CD81EGFP cells; HepG2, 1 µM compound treatment (10 mM stocks), replicate 2, normalized): 56%
HepG2 3uM growth rep1 (HepG2-A16-CD81EGFP cells; HepG2, 3 µM compound treatment (10 mM stocks), replicate 1, normalized): 59%
HepG2 3uM growth rep2 (HepG2-A16-CD81EGFP cells; HepG2, 3 µM compound treatment (10 mM stocks), replicate 2, normalized): 60%
CC50 at 48 h (in vitro [6]): 9.68 µM

Cc1nn2c(c1-c1ccccc1-c1ccccc1)N(CCC(C)C)CCC2 [NCGC00420437-01]
Max Resp (signal direction of the dose response) ([2]; Method 1): Decrease
AC50 ([2]; Method 1, Hill fit, 50% of maximum activity response, read-out: AC50): 1120 nM
Log AC50 (M) ([2]; Method 1, log10 of molar AC50 from Hill fit): -5.950 M
activity at 1 µM [2, 7]: 19.7%
activity at 1 µM [2, 8]: 20.4%
activity at 1 µM [2, 9]: 5.15%
activity at 3 µM [2, 10]: 4.48%
activity at 3 µM [2, 11]: 7.19%
activity at 3 µM [2, 12]: 3.33%
AC50 [2, 13]: 1000 nM
AC50 [2, 14]: 1000 nM
Activity direction (Decrease / Inactive) [3]: Inactive
AC50 [4]: 243 nM
HepG2 viability signal, 1 uM, repeat 2 (HepG2-A16-CD81EGFP cells): 106.23%
HepG2 viability signal, 3 uM, repeat 2 (HepG2-A16-CD81EGFP cells): 19.77%
viability at 48 h, 1 µM (in vitro [5]): 104%
viability at 48 h, 3 µM (in vitro [5]): 10.8%
CC50 at 48 h (in vitro [6]): 19.8 µM
